The record followed here is patent US11891360B2, “Glycosylated psilocybin derivatives and methods of using” (Enveric Biosciences Canada Inc., priority 2020, dated 2024).

For assay [1], the system named is CHO-K1/Galpha15 cells (−5-HT2A). Description: Calcium mobilization (Fluo-8) assay in control cells lacking 5-HT2A (−5-HT2A). The class given is cell-based, Chinese Hamster. The settings on record: CHO-K1/Galpha15 control cells lacking 5-HT2A. The source says:
Cell lines for pharmacology assays. CHO-K1/Galpha15 (GenScript, M00257) (−5-HT2A) and CHO-K1/5-HT2A (GenScript, M00250) (+5-HT2A) cells lines were used in both toxicology/growth inhibition (MTT) and calcium release assays. Briefly, CHO-K1/Galpha15 is a control cell line that constitutively expresses Galpha15 which is a promiscuous Gq protein. It is engineered as a host cell, allowing transfected receptor(s) to signal through the Gq signal transduction pathway and mobilize intracellular calcium from the endoplasmic reticulum (ER). These control cells lack any transgene encoding 5-HT2A receptors, thus preventing calcium mobilization in response to 5-HT2A activation. Conversely, CHO-K1/5-HT2A cells stably express 5-HT2A receptor in the CHO-K1 host background. This design enables Gq-11 expressed in CHO-K1 cells to mobilize intracellular calcium changes when 5-HT2A receptors are activated by ligands.
Cell lines were maintained in Ham's F12 media plus 10% FBS in the presence of 100 ug/ml hygromycin for CHO-K1/Ga15 or 400 ug/ml G418 for CHO-K1/5-HT2A unless indicated otherwise for specific assays. Cell maintenance was carried out as recommended by the cell supplier. Briefly, vials with cells were removed from the liquid nitrogen and thawed quickly in 37° C. water bath. […]
Increase in cytosolic calcium concentration by 5-HT2A activation. Changes in intracellular calcium concentration due to the treatment with assay compounds was measured using Fluo-8 dye (Abcam, #ab112129) according to the manufacturer's instructions. […] Fluorescence (ex 490 nm/em 525 nm) obtained after the addition of molecules was expressed relative to values obtained before addition of the molecules (relative Fluo-8 fluorescence=Fmax/F0, where Fmax=maximum fluorescence and F0=baseline fluorescence). Fluorescence intensities were measured using a Spectramax ID3 plate reader (www.moleculardevices.com). Relative fluorescence (RFU) was plotted with respected to time (seconds) illustrating time-dependent calcium flux. […] The Example compound (Ill) was then evaluated.

For another assay, the target named is 5-HT2A receptor (Homo sapiens, UniProt P28223). Nature of the assay: Calcium mobilization (Fluo-8) assay in CHO-K1 cells stably expressing 5-HT2A (+5-HT2A). The class given is cell-based. The protocol:
Briefly, vials with cells were removed from the liquid nitrogen and thawed quickly in 37° C. water bath.

Sequence of 5-HT2A receptor (P28223 whole entry): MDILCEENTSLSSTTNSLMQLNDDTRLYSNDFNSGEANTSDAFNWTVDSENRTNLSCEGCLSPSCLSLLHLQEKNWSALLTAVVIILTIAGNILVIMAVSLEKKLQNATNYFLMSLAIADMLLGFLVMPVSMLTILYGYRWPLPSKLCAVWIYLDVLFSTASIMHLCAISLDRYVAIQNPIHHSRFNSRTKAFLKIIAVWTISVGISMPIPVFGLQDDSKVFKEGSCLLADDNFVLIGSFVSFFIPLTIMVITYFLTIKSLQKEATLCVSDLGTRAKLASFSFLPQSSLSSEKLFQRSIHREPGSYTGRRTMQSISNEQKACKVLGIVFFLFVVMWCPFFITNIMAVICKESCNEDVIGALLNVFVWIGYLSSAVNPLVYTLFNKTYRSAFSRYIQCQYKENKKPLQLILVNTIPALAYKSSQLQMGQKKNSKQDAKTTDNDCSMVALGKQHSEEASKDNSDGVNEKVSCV

As for `CN(C)CCc1c[nH]c2cccc(O)c12` [psilocin, reference compound], in assay [1], the “calcium flux response in −5-HT2A cells” value is recorded as “did not exhibit a response”. Besides, the “dose dependence of calcium flux response” value on 5-HT2A receptor (+5-HT2A cells, 0.001-100 μM) is “response increased with dosage”.

For the molecule `NCCc1c[nH]c2cccc(O[C@@H]3OC(CO)[C@H](O)C(O)C3O)c12` (stereo partly drawn) [V, 4-O-β-D-galactopyranosyltryptamine], the “calcium flux response in −5-HT2A cells” value in assay [1] is “did not exhibit a response”. Moreover, the “dose dependence of calcium flux response” value on 5-HT2A receptor (+5-HT2A cells, 0.001-100 μM) is “response increased with dosage”. In addition, at 5-HT2A receptor (+5-HT2A cells, 0.001-100 μM, relative Fluo-8 fluorescence vs time), the “time to peak of intracellular calcium flux” value is given as “under 60 seconds”.

Consider `NCCc1c[nH]c2cccc(O[C@@H]3OC(CO)[C@@H](O)C(O)C3O)c12` (stereo partly drawn) [III, 4-O-β-D-glucopyranosyltryptamine], for which, in assay [1], the “calcium flux response in −5-HT2A cells” value is on record as “did not exhibit a response”. For the same molecule, at 5-HT2A receptor (+5-HT2A cells, 0.001-100 μM), the “dose dependence of calcium flux response” value was “response increased with dosage”.

Consider `CN(C)CCc1c[nH]c2cccc(O[C@@H]3OC(CO)[C@H](O)C(O)C3O)c12` (stereo partly drawn) [VI, N,N-dimethyl-4-O-β-D-galactopyranosyltryptamine], for which the EC50 at 5-HT2A receptor (CHO-K1/5-HT2A (+5-HT2A) cells, four parameter logistic curve fitting, GraphPad Prism, read-out: EC50 of relative Fluo-8 fluorescence (calcium mobilization)) worked out at 3.81 µM.
